Laboratory results published in PMC8071358, “Targeting of the Essential acpP, ftsZ, and rne Genes in Carbapenem-Resistant Acinetobacter baumannii by Antisense PNA Precision Antibacterials” (Biomedicines, 2021).

Assays:
A. baumannii ATCC 19606 [1] = assay: BPP-PNA MIC, broth microdilution; format: cell-based, Acinetobacter baumannii; details: 37 °C, 18 h
Procedure, shortened: (§1)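 Broth microdilution used an overnight culture diluted to about 5 × 10^5 CFU/mL in non-cation-adjusted Mueller Hinton Broth, mixed with 2-fold serial dilutions of BPP-PNA (16 to 0.5 µM in the dilution plate, not final). Plates were shaken at 37 °C for 18 h with OD595 read every 20 min.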

CRAB strain AC2 = assay: BPP-PNA MIC, broth microdilution; format: cell-based, Acinetobacter baumannii; details: 37 °C, 18 h
Procedure, shortened: as §1

CRAB strain AC44 = assay: BPP-PNA MIC, broth microdilution; format: cell-based, Acinetobacter baumannii; details: 37 °C, 18 h
Procedure, shortened: as §1

A. baumannii SSI1104 = assay: BPP-PNA MIC, broth microdilution; format: cell-based, Acinetobacter baumannii; details: 37 °C, 18 h
Procedure, shortened: as §1

CRAB strain AC46 = assay: BPP-PNA MIC, broth microdilution; format: cell-based, Acinetobacter baumannii; details: 37 °C, 18 h
CRAB strains = assay: BPP-PNA MIC/MBC summarised over the panel of strains; format: cell-based, Acinetobacter baumannii; details: for bactericidal concentration relative to MIC: CRAB strains; for MIC (complete growth inhibition) over the CRAB strains tested: several A. baumannii strains
Experimental: (§2) MIC values were determined by broth microdilution according to standard protocols with a few modifications. An overnight bacterial cell culture was diluted to approximately 5 × 10^5 CFU/mL in non-cation-adjusted Muller Hinton Broth (MHB). Then, 180 µL bacterial solutions were dispensed into a low-bind 96-well plate (Thermo-Scientific, Roskilde, Denmark) along with 20 µL of BPP-PNA compound (BPP-PNA was serially diluted 2-fold from 16 to 0.5 µM in a 96-well plate). The plate was incubated in a Tecan Genios plate reader (GMI, Minnesota, Ramsey, USA) at 37 °C for 18 h with linear shaking, OD was measured every 20 min at 595 nm. […] The minimum bactericidal concentration (MBC) values were determined by plating 10 µL samples from the wells with no visible turbidity onto Mueller–Hinton agar plates. The MBC is determined the lowest concentration of BPP-PNA that reduces the viability of the initial bacterial inoculum by ≥99.9% (3-log reduction in CFU/mL). A minimum of two independent experiments (biological replicates) of the assay were conducted, and two technical replicates were used in each experiment for each bacterium, compound, and concentration.

E. coli K-12 MG1655 = assay: BPP-PNA MIC, broth microdilution; format: cell-based, Escherichia coli; details: non-target species; MHB without cation (Oxoid)
Experimental: as §2

A. baumannii ATCC 19606 [2] = assay: Time-kill assay; format: cell-based, Acinetobacter baumannii; details: ~10^6 CFU/mL, 37 °C, MHB without cation (Sigma)
Experimental: Bacterial cultures were harvested at 0, 90 min, 3 and 6 h. The content of each well was added to 0.9 mL of MHB and centrifuged at 9300× g for 5 min. Supernatants were removed and the cell pellets were suspended in fresh pre-warmed MHB (100 μL). Tenfold serial dilution were prepared, and 10 μL aliquots were plated on Mueller–Hinton agar and incubated overnight at 37 °C to determine the CFU/mL [17].

HepG2 hepatocytes = assay: HepG2 cell toxicity (CellTiter-Glo, ATP); format: cell-based; details: HepG2, 2–4 µM, ATP level
Experimental: The cell toxicity of selected BPP-PNAs was determined using HepG2 hepatocytes grown in DMEM (low glucose) medium supplemented with 100 U/mL penicillin, 100 µg/mL streptomycin, 1% glutamax, and 10% fetal bovine serum (FBS) (Thermofisher Scientific, Roskilde, Denmark), at 37 °C with 5% CO2. Then, 7000–10,000 cells were seeded in each well of a 96-well plate. After 48 h, the BPP-PNAs were added (six replicates for each concentration), followed by overnight incubation. Total amount of adenosine triphosphate (ATP) was used as a measure of cell viability, according to the CellTiter-Glo luminescent cell viability assay (Promega, Madison, WI, USA) kit. BPP-PNAs concentrations ranged from 2.5 to 20 µM. Potassium dichromate (100 µM) was used as a positive control.

A. baumannii ATCC 19606 [3] = assay: Envelope disruption, Sytox green uptake; format: cell-based, Acinetobacter baumannii; details: fluorescence over 90 min, 37 °C
Experimental: A culture of A. baumannii ATCC 19606 was grown in MHB (195 rpm at 37 °C), until OD595 = 0.4. Then, bacterial cells were pelleted by centrifugation, washed with 0.9% NaCl, and resuspended in MHB at an OD595 = 0.1. Sytox green dye (Invitrogen) was added to the bacterial culture at a concentration of 2 µM followed by incubation for 5 min at 37 °C, followed by addition of the desired amount of BPP–PNA in a 96-well plate format. Fluorescence intensity (λex = 480 nm, λem = 520 nm) was measured every 5 min for 90 min at 37 °C with continuous shaking.

P. aeruginosa (PAO1) = assay: BPP-PNA MIC, broth microdilution; format: cell-based, Pseudomonas aeruginosa; details: non-target species; MHB without cation (Oxoid)
Experimental: as §2

[4] = Oxoid MHB medium, cation adjusted
[5] = Sigma MHB medium without cation

| Substance | MIC, ATCC 19606 (A. baumannii ATCC 19606 [1]; MHB without cation (Oxoid)) [µM] | MIC, SSI 1104 (A. baumannii SSI1104; MHB without cation (Oxoid)) [µM] | concentration with bactericidal activity against carbapenem-resistant A. baumannii (CRAB strains) [µM] | bactericidal concentration relative to MIC (CRAB strains) | MIC (complete growth inhibition) over the CRAB strains tested (CRAB strains) [µM] | MIC, E. coli K-12 MG1655 (E. coli K-12 MG1655) [µM] | reduction in cell viability at MIC50 concentration (HepG2 hepatocytes) | membrane disruption activity (Sytox uptake) (A. baumannii ATCC 19606 [3]; 8 µM) | membrane disruption activity (Sytox uptake) (A. baumannii ATCC 19606 [3]; 2× MIC concentration (4 µM)) | MIC, P. aeruginosa (PAO1) (P. aeruginosa (PAO1)) [µM] | also measured |
| --- | --- | --- | --- | --- | --- | --- | --- | --- | --- | --- | --- |
| H-(KFF)3K-eg1-TGATTTGCCAC-NH2 (antisense; N-terminal (KFF)3K-eg1 peptide, C-terminal amide, backbone not given here, further chemistry not given here) [PNA 5639, anti-acpP peptide-PNA conjugate, match, +1 to +11] | 2 | 2 | 4 | 1–2 × MIC | 1 to 2 | >16 | no reduction in viability | only a minimal effect | no indication of membrane disruption activity | >16 | MIC, ATCC 19606 (A. baumannii ATCC 19606 [1]; [4]): 4 µM; MIC, ATCC 19606 (A. baumannii ATCC 19606 [1]; Sigma MHB medium without cation, ~5 × 10^5 CFU/mL, OD595 < 0.1): 2 µM; MIC, AC2 (CRAB strain AC2; [4]): 4 µM; MIC, AC2 (CRAB strain AC2; [5]): 1 to 2 µM; MIC, AC44 (CRAB strain AC44; [4]): 4 µM; MIC, AC44 (CRAB strain AC44; [5]): 1 µM; MIC, SSI 1104 (A. baumannii SSI1104; [4]): 4 µM; MIC, SSI 1104 (A. baumannii SSI1104; [5]): 2 µM; MIC, AC46 (CRAB strain AC46; [4]): 4 µM; MIC, AC46 (CRAB strain AC46; [5]): 1 µM; decrease of potency in cation adjusted MHB (CRAB strains; cation adjusted MHB against MHB without cation): 1–4 fold; CFU reduction in time-kill (A. baumannii ATCC 19606 [2]; 4 or 8 μM, after 3 h treatment): 4 log |
| H-(KFF)3K-eg1-GAGGCCATGAC-NH2 (antisense; N-terminal (KFF)3K-eg1 peptide, C-terminal amide, backbone not given here, further chemistry not given here) [PNA 5612, anti-ftsZ peptide-PNA conjugate, match, −3 to +8] | 4 | 4 | 4 | 1–2 × MIC | 2 to 8 | >16 | no reduction in viability | only a minimal effect | no indication of membrane disruption activity | >16 | MIC, AC2 (CRAB strain AC2; MHB without cation (Oxoid)): 2 µM; MIC, AC44 (CRAB strain AC44; MHB without cation (Oxoid)): 8 µM; MIC, AC46 (CRAB strain AC46; MHB without cation (Oxoid)): 8 µM; MIC range against 12 multidrug resistant clinical isolates (CRAB strains; 12 CRAB clinical isolates (Table 3)): 2 to 8 µM; match/mismatch ratio of MIC (CRAB strains; 12 multidrug resistant clinical isolates, 5612 vs 5615): 2–8 fold; MIC50 (CRAB strains; over the CRAB and ATCC 19606 strains of Table 3, MHB without cation (Oxoid)): 4 µM; MIC of match PNA lower than mismatch control (mismatch discrimination) (CRAB strains; strains of Table 2 (5612 vs 5615) or Table 4 (5656 vs 5822)): 2–4 fold; CFU reduction in time-kill (A. baumannii ATCC 19606 [2]; 4 μM, after 3 h): more than three order of magnitude CFU reduction |
